Source: PubChem BioAssay AID328 (DTP/NCI, 2004)
Where “and” joins values, the source holds several entries; their conditions need not be identical. Identical values can stand only once. Toxic doses and inconclusive results are not listed. Residues, ends and D or L forms follow the SMILES beside them. *: point of attachment. Cbz = O=C(OCc1ccccc1)*; Bn = c1ccc(C*)cc1

System: BDF1 mice, P388 leukemia ip, median survival T/C
Assay: NCI In Vivo Anticancer Drug Screen. Data for tumor model P388 Leukemia (intraperitoneal) in B6D2F1 (BDF1) mice
Settings: endpoint: median survival time, higher = longer survival
Method in brief: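 Antitumour effect was judged in vivo: survival in drug-treated mice, normalised to that of vehicle-dosed controls, gives the reported T/C.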

[1] = dose: 25.0 mg/kg/injection, schedule: Q01DX009 (ip), vehicle: saline with Tween-80
[2] = dose: 50.0 mg/kg/injection, schedule: Q01DX009 (ip), vehicle: saline with Tween-80
[3] = dose: 100.0 mg/kg/injection, schedule: Q01DX009 (ip), vehicle: saline with Tween-80
[4] = dose: 200.0 mg/kg/injection, schedule: Q01DX009 (ip), vehicle: saline with Tween-80
[5] = dose: 400.0 mg/kg/injection, schedule: Q01DX009 (ip), vehicle: saline with Tween-80
[6] = dose: 12.5 mg/kg/injection, schedule: Q01DX009 (ip), vehicle: Klucel (hydroxypropylcellulose) (HPC)
[7] = dose: 100.0 mg/kg/injection, schedule: Q04DX003 (ip), vehicle: saline with Tween-80
[8] = dose: 200.0 mg/kg/injection, schedule: Q04DX003 (ip), vehicle: saline with Tween-80
[9] = dose: 50.0 mg/kg/injection, schedule: Q01DX009 (ip), vehicle: Klucel (hydroxypropylcellulose) (HPC)
[10] = dose: 100.0 mg/kg/injection, schedule: Q01DX009 (ip), vehicle: Klucel (hydroxypropylcellulose) (HPC)
[11] = dose: 200.0 mg/kg/injection, schedule: Q01DX009 (ip), vehicle: Klucel (hydroxypropylcellulose) (HPC)
[12] = dose: 100.0 mg/kg/injection, schedule: Q01DX009 (ip), vehicle: gum acacia
[13] = dose: 100.0 mg/kg/injection, schedule: Q04DX003 (ip), vehicle: gum acacia
[14] = dose: 200.0 mg/kg/injection, schedule: Q04DX003 (ip), vehicle: gum acacia
[15] = dose: 25.0 mg/kg/injection, schedule: Q04DX003 (ip), vehicle: saline with Tween-80
[16] = dose: 50.0 mg/kg/injection, schedule: Q04DX003 (ip), vehicle: saline with Tween-80

COc1ccc(OC)c2c1C(=O)c1ccccc1C2=O
T/C [1]: 100 % of control
T/C [2]: 105 % of control
T/C [3]: 90 % of control
T/C [4]: 106 % of control
T/C [5]: 103 % of control

N#CSCc1ccc(Cl)c(CSC#N)c1
T/C (dose: 8.0 mg/kg/injection, schedule: Q01DX009 (ip), vehicle: Klucel (hydroxypropylcellulose) (HPC)): 110 % of control
T/C (dose: 12.0 mg/kg/injection, schedule: Q01DX009 (ip), vehicle: Klucel (hydroxypropylcellulose) (HPC)): 117 % of control
T/C [6]: 160 % of control
T/C (dose: 16.5 mg/kg/injection, schedule: Q04DX003 (ip), vehicle: Klucel (hydroxypropylcellulose) (HPC)): 115 % of control
T/C (dose: 25.0 mg/kg/injection, schedule: Q04DX003 (ip), vehicle: Klucel (hydroxypropylcellulose) (HPC)): 115 % of control
T/C (dose: 37.0 mg/kg/injection, schedule: Q04DX003 (ip), vehicle: Klucel (hydroxypropylcellulose) (HPC)): 123 % of control

CC(C(O)c1cccs1)C(O)(C(F)(F)F)C(F)(F)F (centres undefined)
T/C [7]: 90 % of control
T/C [8]: 109 % of control

S=c1[nH]c2ccccc2s1
T/C (dose: 50.0 mg/kg/injection, schedule: Q04DX003 (ip), vehicle: Klucel (hydroxypropylcellulose) (HPC)): 109 % of control
T/C (dose: 100.0 mg/kg/injection, schedule: Q01DX001 (ip), vehicle: Klucel (hydroxypropylcellulose) (HPC)): 100 % of control
T/C (dose: 100.0 mg/kg/injection, schedule: Q04DX003 (ip), vehicle: Klucel (hydroxypropylcellulose) (HPC)): 100 % of control
T/C (dose: 200.0 mg/kg/injection, schedule: Q01DX001 (ip), vehicle: Klucel (hydroxypropylcellulose) (HPC)): 108 % of control
T/C (dose: 200.0 mg/kg/injection, schedule: Q04DX003 (ip), vehicle: Klucel (hydroxypropylcellulose) (HPC)): 100 % of control and 123 % of control
T/C (dose: 400.0 mg/kg/injection, schedule: Q01DX001 (ip), vehicle: Klucel (hydroxypropylcellulose) (HPC)): 100 % of control
T/C (dose: 400.0 mg/kg/injection, schedule: Q04DX003 (ip), vehicle: Klucel (hydroxypropylcellulose) (HPC)): 96 % of control

O=C(CCCN1CCC(C(=O)c2ccc(Cl)cc2)CC1)c1ccc(F)cc1
T/C [6]: 112 % of control

CC(CC(Sc1ccccc1)Sc1ccccc1)CC(Sc1ccccc1)Sc1ccccc1
T/C (dose: 100.0 mg/kg/injection, schedule: Q04DX002 (ip), vehicle: saline with Tween-80): 100 % of control
T/C (dose: 200.0 mg/kg/injection, schedule: Q04DX002 (ip), vehicle: saline with Tween-80): 92 % of control
T/C (dose: 400.0 mg/kg/injection, schedule: Q04DX002 (ip), vehicle: saline with Tween-80): 106 % of control

O=C(O)C(CCCCC1CCCCC1)CCC1CCCCC1 (centres undefined)
T/C (dose: 50.0 mg/kg/injection, schedule: Q01DX001 (ip), vehicle: saline with Tween-80): 100 % of control
T/C (dose: 100.0 mg/kg/injection, schedule: Q01DX001 (ip), vehicle: saline with Tween-80): 100 % of control
T/C (dose: 200.0 mg/kg/injection, schedule: Q01DX001 (ip), vehicle: saline with Tween-80): 100 % of control

c1cc(NC2CCCCC2)ccc1CN1CCOCC1
T/C (dose: 50.0 mg/kg/injection, schedule: Q01DX009 (ip), vehicle: other): 102 % of control and 109 % of control
T/C (dose: 100.0 mg/kg/injection, schedule: Q01DX009 (ip), vehicle: other): 116 % of control

CC(C)(C)C1CC[N-]CC1.CC(C)(C)C1CC[N-]CC1.[Cl][Pt+2][Cl]
T/C (dose: 25.0 mg/kg/injection, schedule: Q01DX009 (ip), vehicle: Klucel (hydroxypropylcellulose) (HPC)): 104 % of control
T/C [9]: 106 % of control
T/C [10]: 117 % of control
T/C [11]: 107 % of control

Cc1ccccc1N=P(c1ccccc1)(c1ccccc1)c1ccccc1
T/C (dose: 50.0 mg/kg/injection, schedule: Q01DX009 (ip), vehicle: gum acacia): 88 % of control
T/C [12]: 88 % of control
T/C [13]: 96 % of control
T/C [14]: 96 % of control

C1CC[N-]CC1.C1CC[N-]CC1.[I][Pt+2][I]
T/C [9]: 93 % of control
T/C [10]: 93 % of control

O=[N+]([O-])c1ccc(Cl)c(S(=O)O)c1
T/C (dose: 75.0 mg/kg/injection, schedule: Q04DX003 (ip), vehicle: saline): 95 % of control
T/C (dose: 150.0 mg/kg/injection, schedule: Q04DX003 (ip), vehicle: saline): 100 % of control
T/C (dose: 300.0 mg/kg/injection, schedule: Q04DX003 (ip), vehicle: saline): 95 % of control

N=C(N)SCc1ccccc1
T/C (dose: 50.0 mg/kg/injection, schedule: Q01DX001 (ip), vehicle: saline): 98 % of control

S=C(S)NNc1ccccc1
T/C [1]: 86 % of control
T/C [15]: 110 % of control
T/C [2]: 100 % of control
T/C [16]: 105 % of control
T/C [3]: 100 % of control
T/C [7]: 100 % of control

O=S1(=O)CCN(C2CCCCCC2)CC1
T/C [9]: 106 % of control
T/C [10]: 111 % of control
T/C [11]: 109 % of control

c1ccc(CC(Cc2ccccc2)NC2=NCCO2)cc1
T/C (dose: 6.25 mg/kg/injection, schedule: Q04DX003 (ip), vehicle: saline with Tween-80): 100 % of control
T/C (dose: 12.5 mg/kg/injection, schedule: Q04DX003 (ip), vehicle: saline with Tween-80): 100 % of control
T/C [15]: 100 % of control

CN(C)c1ccc(/C=C\c2ccnc3ccccc23)cc1
T/C (dose: 1.5 mg/kg/injection, schedule: Q01DX010 (ip), vehicle: saline): 100 % of control
T/C (dose: 3.0 mg/kg/injection, schedule: Q01DX010 (ip), vehicle: saline): 95 % of control
T/C (dose: 6.0 mg/kg/injection, schedule: Q01DX010 (ip), vehicle: saline): 100 % of control
T/C (dose: 12.0 mg/kg/injection, schedule: Q01DX010 (ip), vehicle: saline): 109 % of control

c1cnc2c3c(ccc2c1)CN(C1CCCCC1)CO3
T/C [16]: 104 % of control
T/C [7]: 104 % of control
T/C [8]: 90 % of control

O=C(NC(CSCc1ccccc1)C(=O)NC(Cc1ccc(O)cc1)C(=O)O)OCc1ccccc1 (centres undefined) (Cbz-Cys(Bn)-Tyr-OH; configuration not given here)
T/C [12]: 95 % of control
T/C [13]: 88 % of control
T/C (dose: 200.0 mg/kg/injection, schedule: Q01DX009 (ip), vehicle: gum acacia): 95 % of control
T/C [14]: 107 % of control
T/C (dose: 400.0 mg/kg/injection, schedule: Q01DX009 (ip), vehicle: gum acacia): 100 % of control
T/C (dose: 400.0 mg/kg/injection, schedule: Q04DX003 (ip), vehicle: gum acacia): 92 % of control

CCOC(=O)CCC1(CCC(=O)OCC)OCCO1
T/C [3]: 91 % of control
T/C (dose: 100.0 mg/kg/injection, schedule: Q04DX003 (ip), vehicle: saline): 95 % of control
T/C [4]: 95 % of control
T/C (dose: 200.0 mg/kg/injection, schedule: Q04DX003 (ip), vehicle: saline): 109 % of control
T/C [5]: 108 % of control
T/C (dose: 400.0 mg/kg/injection, schedule: Q04DX003 (ip), vehicle: saline): 109 % of control
